Patent US20120046353A1 (priority 2010, published 2012)
“Also recorded” adds a separate entry of the source.

Key:
[1] = target: neuraminidase of swine influenza virus (H1N1) (Influenza A virus, UniProt Q20F35); assay type: biochemical, swine influenza virus A/Sw/Kor/CAN1/04 (H1N1)
[2] = target: neuraminidase of novel influenza virus (Influenza A virus, UniProt C3W5S3); assay type: biochemical, novel influenza (H1N1) virus
neuraminidase = assay type: biochemical
[3] = target: neuraminidase of avian influenza virus (H9N2) (Influenza A virus, UniProt A9LRT3); assay: biochemical; design: species or system avian influenza virus A/chicken/Korea/01310/2001(H9N2)
[4] = IC50 for neuraminidase of avian influenza virus (H9N2)

Row | Compound | Inhibitory mechanism against neuraminidase of swine influenza virus [1] | Inhibitory activity against neuraminidase of novel influenza virus, in words [2] | Type of inhibition from Lineweaver Burk plots (neuraminidase) | IC50 [3, 4] | IC50 ([3]; IC50 of Tamiflu against neuraminidase of avian influenza virus in combination with compound 4)
1 | COc1c(C)c(O)c(C)c(O)c1C(=O)/C=C/c1ccc(O)cc1 [Compound 4, 4,2′,4′-trihydroxy-6′-methoxy-3′,5′-dimethylchalcone] | non-competitive inhibitor that reversibly inhibits; also recorded: noncompetitive inhibitor | excellent inhibitory activity | non-competitive inhibitor |  | 
2 | COc1c(C)c(O)c(C)c(O)c1C(=O)/C=C/c1ccccc1 [Compound 5, 2′,4′-dihydroxy-6′-methoxy-3′,5′-dimethylchalcone] |  | excellent inhibitory activity | non-competitive inhibitor |  | 
3 | COc1c(C)c(O)c2c(c1C)OC(c1ccccc1)CC2=O (centres unmarked) [Compound 6, 5-hydroxy-7-methoxy-6,8-dimethylflavanone] |  |  |  | > 503000 nM | 
4 | COc1cc(O)c(C)c(O)c1C(=O)/C=C/c1ccccc1 [Compound 8, 2′,4′-dihydroxy-3′-methyl-6′-methoxychalcone] |  | excellent inhibitory activity | non-competitive inhibitor |  | 
5 | COc1cc(O)c(C)c2c1C(=O)CC(c1ccccc1)O2 (centres unmarked) [Compound 11, 7-hydroxy-5-methoxy-8-methylflavanone] |  |  |  | > 528000 nM | 
6 | Cc1c(O)cc(O)c2c1OC(c1ccccc1)CC2=O (centres unmarked) [Compound 12, 8-methylpinocembrin] |  |  |  | > 555000 nM | 
7 | COc1c(C)c(O)c(C)c(O)c1C(=O)/C=C/c1ccccc1O [Compound 14, 2,2′,4′-trihydroxy-6′-methoxy-3′,5′-dimethylchalcone] |  | excellent inhibitory activity | non-competitive inhibitor |  | 
8 | CCOC(=O)C1=C[C@@H](OC(CC)CC)[C@H](NC(C)=O)[C@@H](N)C1 [Tamiflu, oseltamivir phosphate, reference compound] |  |  |  | 13.6 nM | 1.47 nM
